Experimental data as given in patent US11072588B2, “Barbituric acid derivatives comprising cationic and lipophilic groups” (UNIVERSITETET I TROMSØ—NORGES ARKTISKE UNIVERSITET, priority 2017, dated 2021).
In brackets after ≈: the same amount, converted by molar mass. Where two headings read alike, the source gives them in different places.

Assays:
[1] = tested on: Corynebacterium glutamicum ATCC 13032; test: MIC assay, antibiotic susceptible reference strain; assay type: cell-based; settings: Corynebacterium glutamicum, ATCC13032, read-out: Antimicrobial activity (MIC) C. g
Procedure: (§1) Working solutions of the test derivatives were prepared with up to 100% DMSO and stored at −20° C. If necessary, the solutions were heated to 40-80° C. before testing to facilitate complete dissolution. Double-distilled water was used in all dilutions prepared. […] A microdilution susceptibility test was used for MIC determination according to Clinical and Laboratory Standards Institute, “Methods for Dilution Antimicrobial Sisceptibility Tests for Bacteria That Graw Aerobically”, Approved Standard M07-A9, edition 2012, with modifications as described by Igumnova et al (Bioorg Med Chem, 2016, 24 (22), 5884-5894).
(§2) Briefly, the bacterial inoculum was adjusted to approximately 2.5-3×10^4 cells/mL in Mueller-Hinton broth (MHB, Difco Laboratories, USA), and incubated in a ratio of 1:1 with test derivatives in polystyrene 96-well flat-bottom microplates (NUNC, Roskilde, Denmark). Positive growth control (without test derivatives) and negative control (without bacteria) were included. The reference antibiotic was oxytetracycline hydrochloride (Sigma Aldrich, Saint Louis, Mo., USA). The microplates were incubated in an EnVision microplate reader (Perkin-Elmer, Turku, Finland) placed in an incubator set to 35° C. for 48 h. The MIC value was defined as the lowest concentration of derivative resulting in no bacterial growth as determined by OD600 measurement. All derivatives were tested in three parallels.

[2] = tested on: Escherichia coli ATCC 25922; test: MIC assay, antibiotic susceptible reference strain; assay type: cell-based; settings: Escherichia coli, ATCC25922, read-out: Antimicrobial activity (MIC) E. c
Procedure: as §1, §2

[3] = tested on: Pseudomonas aeruginosa PA01, DSM 19880 (ATCC 15692); test: MIC assay, antibiotic susceptible reference strain; assay type: cell-based; settings: Pseudomonas aeruginosa, read-out: Antimicrobial activity (MIC) P. a
Procedure: as §1, §2

[4] = tested on: Staphylococcus aureus ATCC 9144; test: MIC assay, antibiotic susceptible reference strain; assay type: cell-based; settings: Staphylococcus aureus, ATCC9144, read-out: Antimicrobial activity (MIC) S. a
Procedure: as §1, §2

E. faecium 50673722 = test: MIC, multi-resistant clinical isolate; assay type: cell-based, Enterococcus faecium; settings: for MIC: Enterococcus faecium, read-out: Antimicrobial activity (MIC); for selectivity index (EC50/MIC): RBC EC50 / MIC
Procedure: as §1, §2
(§3) The MIC was determined as explained above with some exceptions; working solutions of test derivatives were prepared from concentrated DMSO stocks stored at room temperature, the density of the bacterial inoculum was increased 40× to 1-1.2×10^6 cells/mL, enterococci were incubated in Brain Heart Infusion broth (BHIB, Difco Laboratories, USA), the microplates were incubated for 24 h, and the derivatives were tested in four parallels.

E. faecium 50758899 = test: MIC, multi-resistant clinical isolate; assay type: cell-based, Enterococcus faecium; settings: for MIC: Enterococcus faecium, read-out: Antimicrobial activity (MIC); for selectivity index (EC50/MIC): RBC EC50 / MIC
Procedure: as §1, §2, §3

E. faecium 50901530 = test: MIC, multi-resistant clinical isolate; assay type: cell-based, Enterococcus faecium; settings: for MIC: Enterococcus faecium, read-out: Antimicrobial activity (MIC); for selectivity index (EC50/MIC): RBC EC50 / MIC
Procedure: as §1, §2, §3

E. faecium K36-18 = test: MIC, multi-resistant clinical isolate; assay type: cell-based, Enterococcus faecium; settings: for MIC: Enterococcus faecium, K3618, read-out: Antimicrobial activity (MIC); for selectivity index (EC50/MIC): RBC EC50 / MIC, E. faecium K36-18
Procedure: as §1, §2, §3

E. faecium TUH50-22 = test: MIC, multi-resistant clinical isolate; assay type: cell-based, Enterococcus faecium; settings: for MIC: Enterococcus faecium, TUH5022, read-out: Antimicrobial activity (MIC); for selectivity index (EC50/MIC): RBC EC50 / MIC
Procedure: as §1, §2, §3

E. coli 50639799 = test: MIC, multi-resistant clinical isolate; assay type: cell-based, Escherichia coli; settings: for MIC: Escherichia coli, read-out: Antimicrobial activity (MIC); for selectivity index (EC50/MIC): RBC EC50 / MIC
Procedure: as §1, §2, §3

E. coli 50857972 = test: MIC, multi-resistant clinical isolate; assay type: cell-based, Escherichia coli; settings: for MIC: Escherichia coli, read-out: Antimicrobial activity (MIC); for selectivity index (EC50/MIC): RBC EC50 / MIC
Procedure: as §1, §2, §3

P. aeruginosa 50692172 = test: MIC, multi-resistant clinical isolate; assay type: cell-based, Pseudomonas aeruginosa; settings: for MIC: Pseudomonas aeruginosa, read-out: Antimicrobial activity (MIC)
Procedure: as §1, §2, §3

P. aeruginosa 50692520 = test: MIC, multi-resistant clinical isolate; assay type: cell-based, Pseudomonas aeruginosa; settings: for MIC: Pseudomonas aeruginosa, read-out: Antimicrobial activity (MIC)
Procedure: as §1, §2, §3

P. aeruginosa K34-73 = test: MIC, multi-resistant clinical isolate; assay type: cell-based, Pseudomonas aeruginosa; settings: for MIC: Pseudomonas aeruginosa
Procedure: as §1, §2, §3

P. aeruginosa K34-7 = test: MIC, multi-resistant clinical isolate; assay type: cell-based, Pseudomonas aeruginosa; settings: for MIC: Pseudomonas aeruginosa, K347, read-out: Antimicrobial activity (MIC)
Procedure: as §1, §2, §3

P. aeruginosa K44-24 = test: MIC, multi-resistant clinical isolate; assay type: cell-based, Pseudomonas aeruginosa; settings: for MIC: Pseudomonas aeruginosa, K4424, read-out: Antimicrobial activity (MIC)
Procedure: as §1, §2, §3

K. pneumoniae 50531633 = test: MIC, multi-resistant clinical isolate; assay type: cell-based, Klebsiella pneumoniae; settings: K. pneumoniae 50531633, resistant to colistin; for MIC: Klebsiella pneumoniae, 24 h, read-out: Antimicrobial activity (MIC); for selectivity index (EC50/MIC): RBC EC50 / MIC
Procedure: as §1, §2, §3

K. pneumoniae 50625602 = test: MIC, multi-resistant clinical isolate; assay type: cell-based, Klebsiella pneumoniae; settings: for MIC: Klebsiella pneumoniae, read-out: Antimicrobial activity (MIC); for selectivity index (EC50/MIC): RBC EC50 / MIC
Procedure: as §1, §2, §3

K. pneumoniae 50667959 = test: MIC, multi-resistant clinical isolate; assay type: cell-based, Klebsiella pneumoniae; settings: for MIC: Klebsiella pneumoniae, read-out: Antimicrobial activity (MIC); for selectivity index (EC50/MIC): RBC EC50 / MIC
Procedure: as §1, §2, §3

K. pneumoniae K47-25 = test: MIC, multi-resistant clinical isolate; assay type: cell-based, Klebsiella pneumoniae; settings: for MIC: Klebsiella pneumoniae, K4725, 24 h, read-out: Antimicrobial activity (MIC)
Procedure: as §1, §2, §3

K. pneumoniae K66-45 = test: MIC, multi-resistant clinical isolate; assay type: cell-based, Klebsiella pneumoniae; settings: for MIC: Klebsiella pneumoniae, K6645, read-out: Antimicrobial activity (MIC); for selectivity index (EC50/MIC): RBC EC50 / MIC, K. pneumoniae K66-45
Procedure: as §1, §2, §3

S. epidermidis = test: Anti-biofilm activity (inhibition of biofilm formation); assay type: cell-based; settings: Staphylococcus epidermidis, read-out: Anti-biofilm IC50

SMILES | MIC [1] | MIC [2] | MIC [3] | MIC [4] | MIC (E. faecium 50673722) | selectivity index (EC50/MIC) (E. faecium 50673722) | MIC (E. faecium 50758899) | selectivity index (EC50/MIC) (E. faecium 50758899) | MIC (E. faecium 50901530) | selectivity index (EC50/MIC) (E. faecium 50901530) | MIC (E. faecium K36-18) | selectivity index (EC50/MIC) (E. faecium K36-18) | MIC (E. faecium TUH50-22) | selectivity index (EC50/MIC) (E. faecium TUH50-22) | MIC (E. coli 50639799) | selectivity index (EC50/MIC) (E. coli 50639799) | MIC (E. coli 50857972) | selectivity index (EC50/MIC) (E. coli 50857972) | MIC (P. aeruginosa 50692172) | MIC (P. aeruginosa 50692520) | other results
CC(C)(C)c1cc(CC2(Cc3cc(C(C)(C)C)cc(C(C)(C)C)c3)C(=O)N(CCCCNC(=N)N)C(=O)N(CCCCNC(=N)N)C2=O)cc(C(C)(C)C)c1 [8(iii), 1,1′-(4,4′-(5,5-bis(3,5-di-tert-butylbenzyl)-2,4,6-trioxodihydropyrimidine-1,3(2H,4H)-diyl)bis(butane-4,1-diyl))-diguanidine] | 0.25 µg/mL (≈ 0.329 µM) | 4 µg/mL (≈ 5.27 µM) | 4 µg/mL (≈ 5.27 µM) | 1 µg/mL (≈ 1.32 µM) | 2 µg/mL (≈ 2.63 µM) | (<2) | 2 µg/mL (≈ 2.63 µM) | (<2) | 2 µg/mL (≈ 2.63 µM) | (<2) | 2 µg/mL (≈ 2.63 µM) | (<2) | 2 µg/mL (≈ 2.63 µM) | (<2) | 8 µg/mL (≈ 10.5 µM) | (<0.5) | 8 µg/mL (≈ 10.5 µM) | (<0.5) | 16 µg/mL (≈ 21.1 µM) | 16 µg/mL (≈ 21.1 µM) | selectivity index (EC50/MIC) (P. aeruginosa 50692172; RBC EC50 / MIC): (<0.25); selectivity index (EC50/MIC) (P. aeruginosa 50692520; RBC EC50 / MIC): (<0.25); MIC (P. aeruginosa K34-73; K3473, P. aeruginosa K34-73, read-out: Antimicrobial activity (MIC)): 8 µg/mL (≈ 10.5 µM); selectivity index (EC50/MIC) (P. aeruginosa K34-73; RBC EC50 / MIC, P. aeruginosa K34-73): (<0.5); MIC (P. aeruginosa K34-7): 16 µg/mL (≈ 21.1 µM); selectivity index (EC50/MIC) (P. aeruginosa K34-7; RBC EC50 / MIC, P. aeruginosa K34-7): (<0.25); MIC (P. aeruginosa K44-24): 16 µg/mL (≈ 21.1 µM); selectivity index (EC50/MIC) (P. aeruginosa K44-24; RBC EC50 / MIC): (<0.25); MIC (K. pneumoniae 50531633): 16 µg/mL (≈ 21.1 µM); selectivity index (EC50/MIC) (K. pneumoniae 50531633): (<0.25); MIC (K. pneumoniae 50625602): 16 µg/mL (≈ 21.1 µM); selectivity index (EC50/MIC) (K. pneumoniae 50625602): (<0.25); MIC (K. pneumoniae 50667959): 8 µg/mL (≈ 10.5 µM); selectivity index (EC50/MIC) (K. pneumoniae 50667959): (<0.5); MIC (K. pneumoniae K47-25; K. pneumoniae K47-25, resistant to colistin): 16 µg/mL (≈ 21.1 µM); selectivity index (EC50/MIC) (K. pneumoniae K47-25; RBC EC50 / MIC, K. pneumoniae K47-25, resistant to colistin): (<0.25); MIC (K. pneumoniae K66-45): 8 µg/mL (≈ 10.5 µM); selectivity index (EC50/MIC) (K. pneumoniae K66-45): (<0.5); IC50 (S. epidermidis): 2 µg/mL (≈ 2.63 µM)
CC(C)(C)c1ccc(CC2(Cc3ccc(C(C)(C)C)cc3)C(=O)N(CCCCN)C(=O)N(CCCCN)C2=O)cc1 [Compound 7(i), 1,3-bis(4-aminobutyl)-5,5-bis(4-tertbutylbenzyl) pyrimidin-2,4,6(1H,3H,5H)-trione] | 1 µg/mL (≈ 1.78 µM) | 4 µg/mL (≈ 7.11 µM) | 8 µg/mL (≈ 14.2 µM) | 4 µg/mL (≈ 7.11 µM) | 8 µg/mL (≈ 14.2 µM) | (18) | 8 µg/mL (≈ 14.2 µM) | (18) | 4 µg/mL (≈ 7.11 µM) | (36) | 8 µg/mL (≈ 14.2 µM) | (18) | 8 µg/mL (≈ 14.2 µM) | (18) | 8 µg/mL (≈ 14.2 µM) | (18) | 4 µg/mL (≈ 7.11 µM) | (36) | > 32 µg/mL | > 32 µg/mL | MIC (P. aeruginosa K34-73; K3473, read-out: Antimicrobial activity (MIC)): > 32 µg/mL; MIC (P. aeruginosa K34-7): > 32 µg/mL; MIC (P. aeruginosa K44-24): > 32 µg/mL; MIC (K. pneumoniae 50531633): 16 µg/mL (≈ 28.4 µM); selectivity index (EC50/MIC) (K. pneumoniae 50531633): (9); MIC (K. pneumoniae 50625602): 16 µg/mL (≈ 28.4 µM); selectivity index (EC50/MIC) (K. pneumoniae 50625602): (9); MIC (K. pneumoniae 50667959): 32 µg/mL (≈ 56.9 µM); selectivity index (EC50/MIC) (K. pneumoniae 50667959): (4); MIC (K. pneumoniae K47-25): > 32 µg/mL; MIC (K. pneumoniae K66-45): 32 µg/mL (≈ 56.9 µM); selectivity index (EC50/MIC) (K. pneumoniae K66-45): (4); IC50 (S. epidermidis): 4 µg/mL (≈ 7.11 µM)
